Measured values from ChEMBL document CHEMBL1201862, “PubChem BioAssay data set” (2004).
Active and inactive are the calls of the source.

Experiments:
[1] = molecular target: T1, Carboxy-terminal domain RNA polymerase II polypeptide A small phosphatase 1 (Homo sapiens, UniProt Q9GZU7); assay: CTDSP1 inhibitors, concentration-response, biochemical, absorbance readout, ultra-high-throughput screen actives (AID 540297); assay type: functional
T1 sequence (Q9GZU7 whole entry): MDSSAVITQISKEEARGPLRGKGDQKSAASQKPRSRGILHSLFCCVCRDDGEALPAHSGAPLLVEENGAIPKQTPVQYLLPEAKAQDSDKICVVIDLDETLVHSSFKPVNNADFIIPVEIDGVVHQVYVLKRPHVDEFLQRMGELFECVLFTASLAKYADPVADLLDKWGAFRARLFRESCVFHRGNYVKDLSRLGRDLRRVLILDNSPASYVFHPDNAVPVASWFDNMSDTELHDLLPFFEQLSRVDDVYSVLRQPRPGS

[2] = molecular target: Low molecular weight phosphotyrosine protein phosphatase (Homo sapiens, UniProt P24666); assay type: functional; conditions: read-out: IC50_Mean
Sequence of Low molecular weight phosphotyrosine protein phosphatase (P24666 whole entry): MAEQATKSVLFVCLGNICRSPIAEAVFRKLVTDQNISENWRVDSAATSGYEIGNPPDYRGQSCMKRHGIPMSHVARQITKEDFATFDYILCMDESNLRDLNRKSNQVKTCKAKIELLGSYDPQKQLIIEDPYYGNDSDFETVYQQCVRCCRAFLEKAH

[3] = activation of miR-122 Renilla sensor silencing – cell-based, Huh7 psiCHECK-miR122, Renilla luciferase, cherry-picked, dose response (AID 651956); assay type: functional;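 note: huh7 hepatoma cells stably carrying a psiCHECK-2 miR-122 sensor plasmid; renilla luciferase signal reporting endogenous miR-122 activity after 48 h compound exposure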
[4] = TNFa-induced NF-kB reporter signal decrease – HEK293 LMP1 reporter cells, dry powder, set 2, selectivity assay for EBV LMP1 NF-kB inhibitor project, dose response (AID 624369); assay type: functional
[5] = viability loss in mouse NIH3T3 cells – cell-based, CellTiter-Glo luminescence, dry powder, cytotoxicity control for PglD inhibitor project, dose response (AID 652044); assay type: functional
[6] = viability loss in LCL cells – cell-based, plate reader, dry powder, set 2, cytotoxicity control, dose response (AID 624367); assay type: functional
Mu-type opioid receptor = Mu-type opioid receptor (Homo sapiens, UniProt P35372); assay type: functional, cell-based;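 note: U2OS cells with beta-arrestin recruitment to OPRM1 by beta-gal complementation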
Sequence of Mu-type opioid receptor (P35372 whole entry): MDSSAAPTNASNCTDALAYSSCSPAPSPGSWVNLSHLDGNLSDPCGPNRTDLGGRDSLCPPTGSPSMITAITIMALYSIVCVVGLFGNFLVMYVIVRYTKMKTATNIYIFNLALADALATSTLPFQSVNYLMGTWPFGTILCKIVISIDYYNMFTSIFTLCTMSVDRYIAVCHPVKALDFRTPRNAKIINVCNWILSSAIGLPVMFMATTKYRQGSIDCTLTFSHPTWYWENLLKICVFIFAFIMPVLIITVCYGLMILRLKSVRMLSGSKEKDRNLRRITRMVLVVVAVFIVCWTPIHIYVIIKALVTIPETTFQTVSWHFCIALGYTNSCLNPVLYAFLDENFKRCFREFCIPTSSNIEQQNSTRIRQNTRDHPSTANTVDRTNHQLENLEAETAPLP

[7] = molecular target: 5-hydroxytryptamine receptor 2A (Mus musculus, UniProt P35363); assay type: functional, cell-based;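 note: CHO-K1 cells with tagged receptor and beta-arrestin; agonist potency measured as compound-induced activation of the receptor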
Sequence of 5-hydroxytryptamine receptor 2A (P35363 whole entry): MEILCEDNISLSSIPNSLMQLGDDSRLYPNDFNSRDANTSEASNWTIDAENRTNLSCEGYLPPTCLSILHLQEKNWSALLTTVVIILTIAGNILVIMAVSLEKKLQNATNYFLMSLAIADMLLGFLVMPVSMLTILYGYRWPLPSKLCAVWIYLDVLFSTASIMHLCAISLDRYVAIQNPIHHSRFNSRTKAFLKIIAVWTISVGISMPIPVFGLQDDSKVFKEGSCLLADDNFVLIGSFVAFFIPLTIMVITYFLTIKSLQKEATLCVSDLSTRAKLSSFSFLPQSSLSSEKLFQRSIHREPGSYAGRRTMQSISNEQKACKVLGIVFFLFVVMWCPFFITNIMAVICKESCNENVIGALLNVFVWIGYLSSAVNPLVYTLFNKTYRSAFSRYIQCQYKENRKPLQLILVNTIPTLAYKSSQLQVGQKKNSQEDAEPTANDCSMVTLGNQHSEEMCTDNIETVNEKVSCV

[8] = Cytotoxicity screening for potential Inhibitors of Bacterial Capsule Biogenesis (4).; assay type: functional
Leucine aminopeptidase = molecular target: T2, Leucine aminopeptidase (Plasmodium falciparum 3D7, UniProt Q8IL11); assay: P. falciparum M17LAP inhibitors, primary screen, biochemical, fluorogenic H-Leu-NHMec substrate, 1536-well (AID 1619); assay type: functional
T2 sequence (Q8IL11 whole entry): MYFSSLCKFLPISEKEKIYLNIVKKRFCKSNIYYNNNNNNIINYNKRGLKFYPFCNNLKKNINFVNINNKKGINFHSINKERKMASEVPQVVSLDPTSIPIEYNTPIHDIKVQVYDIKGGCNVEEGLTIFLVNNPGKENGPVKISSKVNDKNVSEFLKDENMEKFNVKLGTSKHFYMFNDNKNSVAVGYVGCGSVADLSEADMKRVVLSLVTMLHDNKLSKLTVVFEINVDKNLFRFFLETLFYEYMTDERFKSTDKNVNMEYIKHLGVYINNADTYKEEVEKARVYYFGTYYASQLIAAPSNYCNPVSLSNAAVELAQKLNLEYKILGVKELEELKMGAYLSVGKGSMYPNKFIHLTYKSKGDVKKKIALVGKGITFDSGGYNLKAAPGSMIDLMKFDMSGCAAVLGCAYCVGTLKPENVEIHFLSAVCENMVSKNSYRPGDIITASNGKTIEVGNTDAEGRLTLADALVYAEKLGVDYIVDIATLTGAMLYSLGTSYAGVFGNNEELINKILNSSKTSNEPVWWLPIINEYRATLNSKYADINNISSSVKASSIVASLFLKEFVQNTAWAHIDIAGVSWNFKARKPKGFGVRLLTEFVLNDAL

[9] = molecular target: T3, Probable nicotinate-nucleotide adenylyltransferase (Staphylococcus aureus (strain N315), UniProt P65502); assay type: functional, Staphylococcus aureus subsp. aureus N315;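 for IC50 Mean: confirmatory dose-response retesting of NadD inhibitor hits first found in an ultra-high-throughput screen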
T3 sequence (P65502 whole entry): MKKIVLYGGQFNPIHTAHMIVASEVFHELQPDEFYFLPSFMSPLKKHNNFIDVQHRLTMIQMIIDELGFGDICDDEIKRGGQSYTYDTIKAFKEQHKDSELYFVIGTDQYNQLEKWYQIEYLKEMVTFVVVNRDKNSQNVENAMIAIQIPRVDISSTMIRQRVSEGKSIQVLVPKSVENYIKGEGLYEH

[10] = molecular target: T3, Probable nicotinate-nucleotide adenylyltransferase; assay type: functional, Staphylococcus aureus subsp. aureus N315; conditions: read-out: IC50_Mean
cells = assay type: functional, cell-based
[11] = viability of PTEN-deleted HCT116 cells – cell-based, HCT116 PTEN knockout, dose response (AID 1047); assay type: functional;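 note: HCT116 colon tumor cells with PTEN knocked out; cells exposed to compound for 60 hours before readout; potency for loss of cell viability measured by luminescence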
[12] = viability of HCT116 lacking mutant beta-catenin – cell-based, human colon tumor, dose response (AID 1045); assay type: functional;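 note: HCT116 colon tumor cells with beta catenin knocked out; cells exposed to compound for 60 hours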
[13] = molecular target: G-protein coupled receptor 55 (Homo sapiens, UniProt Q9Y2T6); assay: selective activators of receptor GPR55 – imaging, U2OS cells, beta-arrestin-GFP redistribution, primary screen (AID 1961); assay type: functional
Sequence of G-protein coupled receptor 55 (Q9Y2T6 whole entry): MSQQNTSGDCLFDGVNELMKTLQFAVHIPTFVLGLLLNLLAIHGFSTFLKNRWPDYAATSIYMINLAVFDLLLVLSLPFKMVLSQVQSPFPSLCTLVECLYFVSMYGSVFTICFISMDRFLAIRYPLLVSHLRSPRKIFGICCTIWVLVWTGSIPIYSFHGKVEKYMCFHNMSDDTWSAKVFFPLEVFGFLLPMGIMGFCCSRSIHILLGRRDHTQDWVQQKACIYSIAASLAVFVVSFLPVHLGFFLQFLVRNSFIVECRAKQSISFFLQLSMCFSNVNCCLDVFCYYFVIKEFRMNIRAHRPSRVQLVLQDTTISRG

Vero = assay: cells; assay type: functional; conditions: Chlorocebus sabaeus
[14] = Fluorescence-based cell-based high throughput dose response assay for inhibitors of the interaction of nucleotide-binding oligomerization domain containing 2 (NOD2) and the receptor-interacting serine-threonine kinase 2 (RIPK2).; assay type: functional; conditions: Homo sapiens
Beta Lactamase = Beta Lactamase (Pseudomonas aeruginosa, UniProt Q932Y6); assay: BLA reporter interference, concentration series – BLA reporter cells, FRET fluorescence, artefact control for NOD2-RIPK2 interaction inhibitor project, dose response (AID 651552); assay type: functional, cell-based
Sequence of Beta Lactamase (Q932Y6 whole entry): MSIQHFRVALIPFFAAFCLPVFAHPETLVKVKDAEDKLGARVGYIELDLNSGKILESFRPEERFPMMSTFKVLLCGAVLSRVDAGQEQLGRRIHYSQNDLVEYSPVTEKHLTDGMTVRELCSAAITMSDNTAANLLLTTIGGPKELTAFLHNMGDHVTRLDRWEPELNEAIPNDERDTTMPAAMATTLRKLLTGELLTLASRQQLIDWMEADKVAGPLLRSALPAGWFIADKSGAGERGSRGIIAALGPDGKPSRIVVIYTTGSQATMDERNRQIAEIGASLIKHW

In the case of `O=C(Nc1nc2ccsc2c(=O)s1)c1ccc(Cl)cc1`, the IC50 [1] is reported as 5.43 µM (active) and the IC50 [2] is reported as 39.3 µM (inactive).
With `CC(C)c1ccc(NC(=O)C[C@H]2CC[C@H]3[C@@H](COc4ccc(NC(=O)Nc5ccc(F)c(F)c5)cc4C(=O)N3C)O2)cc1` the AC50 [3] was 14.3 µM (active) and the AbsAC35 [4] was 91.94 µM.
In the case of `O=C(C[C@@H]1CC[C@H]2[C@@H](COC[C@H](O)CN2C(=O)Nc2cccc(F)c2)O1)NCc1ccccc1F`, the AC50 [5] is reported as > 52 µM (inactive).
`O=C(Nc1ccc(C(F)(F)F)cc1)Nc1ccc2c(c1)[C@@H]1C[C@H](CC(=O)N3CCc4ccccc4C3)O[C@@H](CO)[C@@H]1O2` gave an AbsAC35 [6] of 85.24 µM.
For `OC(COc1ccc2cc(Br)ccc2c1)CN1CCN(c2ccccn2)CC1` (centres undefined), the EC50 (Mu-type opioid receptor) was 92.5 µM (inactive) and the EC50 [7] was 0.903 µM (active).
For `CC(C)(C)OC(=O)Nc1nc2ccc(C(=O)Nc3ccnc(Cl)c3)cc2s1`, the CC50 [8] was > 300 µM (inactive).
For `CCc1nnc(NS(=O)(=O)c2ccc(/N=C/c3c(C)nn(-c4ccc(C)c(C)c4)c3O)cc2)s1`, the IC50 (Leucine aminopeptidase) was 14.4 µM (active), the IC50 [9] was 4.55 µM (active) and the IC50 [10] was 16.5 µM (active). The IC50 (cells) was 70 µM (inactive).
With `N#Cc1ccccc1Cn1cc(/C=C/[N+](=O)[O-])c2ccccc21` the EC50 [11] was 17.8 µM (active), the EC50 [12] was 18 µM (active) and the EC50 [13] was 3.11 µM (active). The CC50 (Vero) was 8.92 µM (active), the IC50 [14] was 10.3 µM (inactive) and the IC50 (Beta Lactamase) was 24.4 µM (inactive).
